Experimental data reported in US8722733B2 (XenoPort, Inc., priority 2008, dated 2014).

Tests used:
[1] = Interconversion of the anhydrous and hydrated crystalline forms (XRPD); format: physicochemical
Protocol: X-ray powder diffraction (XRPD) analysis was performed using a PANalytical X'Pert Pro X-ray diffractometer. The X-ray source was Cu-kα1 with output voltage of 45 kV and current of 40 mA. The instrument employed para-focusing Bragg-Brentano geometry with incident divergence and scattering slits set at 1/16° and ⅛°, respectively. 0.04-mm radius soller slits were used for both the incident and diffracted beams to remove axial divergence. Powder samples (9-12 mg) were gently pressed onto a single crystal silicon sample holder to form a smooth surface, and samples were spun at 8 sec/revolution throughout the data acquisition process. The samples were scanned from 2° to 40° (2θ) with a step size of 0.017° (2θ°) and a scan speed of 0.067°/sec. Data acquisition was controlled and analyzed with X'Pert Data Collector Software (version 2.2d) and X'Pert Data Viewer (version 1.2c), respectively.
The anhydrous and hydrated crystalline forms of (2R)-2-phenylcarbonyloxypropyl (2S)-2-amino-3-(3,4-dihydroxyphenyl)propanoate mesylate interconvert depending on the water content of the environment.

[2] = Water sorption/desorption (dynamic vapor sorption); format: physicochemical; details: 25° C., humidity cycle 5% RH to 95% RH at 10% RH intervals
Protocol: The hygroscopicity of (2R)-2-phenylcarbonyloxypropyl (2S)-2-amino-3-(3,4-dihydroxyphenyl)propanoate mesylate, hydrate was evaluated during one vapor sorption-desorption cycle using a VTI SGA-100 dynamic vapor sorption analyzer. (2R)-2-Phenylcarbonyloxypropyl (2S)-2-amino-3-(3,4-dihydroxyphenyl)propanoate mesylate, hydrate was first dried at 25° C. for 180 min under a nitrogen atmosphere. The material was considered equilibrated when the weight change during 2 min was less than 0.01%. To evaluate the vapor sorption-desorption at 25° C., the dried (2R)-2-phenylcarbonyloxypropyl (2S)-2-amino-3-(3,4-dihydroxyphenyl)propanoate mesylate, hydrate was exposed to a humidity cycle ramped (and deramped) from 5% RH to 95% RH at 10% RH intervals. At each humidity interval, the material was equilibrated as determined by a less than 0.01% weight change during 5 min.

SMILES	Crystal form after heating and then room temperature and humidity ([1]; after heating at 70° C., left at room temperature and humidity for 1 day)	Crystal form after heating ([1]; heated from 25° C. to 70° C. at 2° C./min, held at 70° C. for 15 min)	Crystal form after vacuum drying and then room temperature and humidity ([1]; vacuum dried overnight, then 25° C. and 40-60% RH for one day)	Hygroscopicity: vapor sorption-desorption [2]	Time for conversion to the hydrate in the presence of water vapor ([1]; about 25° C., humidity of at least about 60% RH)
CS(=O)(=O)O.C[C@H](COC(=O)[C@@H](N)Cc1ccc(O)c(O)c1)OC(=O)c1ccccc1.O [(2R)-2-phenylcarbonyloxypropyl (2S)-2-amino-3-(3,4-dihydroxyphenyl)propanoate mesylate, hydrate]	reverts to crystalline (2R)-2-phenylcarbonyloxypropyl (2S)-2-amino-3-(3,4-dihydroxyphenyl)propanoate mesylate, hydrate	converted to a transient/metastable crystalline form	a mixture of crystalline anhydrous and hydrate forms	humidity-dependent reversible sorption and desorption of water vapor	
CS(=O)(=O)O.C[C@H](COC(=O)[C@@H](N)Cc1ccc(O)c(O)c1)OC(=O)c1ccccc1 [compound 1, (2R)-2-phenylcarbonyloxypropyl (2S)-2-amino-3-(3,4-dihydroxyphenyl)propanoate mesylate]					≤ 24 h
